Measured values published in ChEMBL document CHEMBL5518227, “Discovery of JNJ-1802, a First-in-Class Pan-Serotype Dengue Virus NS4B Inhibitor” (J Med Chem, 2024).

How the values were obtained:
[1] = Volume of distribution at steady state in Sprague-Dawley rat at 2.5 mg/kg, iv measured after 24 hrs by LC-MS/MS analysis; format: ADME, organism-based; details: in vivo, read-out: Vdss
mouse P-gp = test: Efflux ratio of permeability from basolateral to apical side over apical to basolateral side in pig LLC-PK1 cells transfected with mouse P-gp at 1 uM measured upto 120 mins; format: ADME, cell-based, Sus scrofa
[2] = Volume of distribution at steady state in 8 hrs fasted cynomolgus monkey […] at 1 mg/kg, iv measured upto 24 hrs by LC-MS/MS analysis; format: ADME, organism-based, Macaca fascicularis; details: in vivo, read-out: Vdss
Cytochrome P450 1A2 = biological target: T1, Cytochrome P450 1A2 (Homo sapiens, UniProt P05177); test: Inhibition of human CYP1A2 preincubated for 5 mins followed by NADPH addition measured after 5 to 30 mins by LC-MS analysis; format: ADME
T1 sequence (P05177 whole entry): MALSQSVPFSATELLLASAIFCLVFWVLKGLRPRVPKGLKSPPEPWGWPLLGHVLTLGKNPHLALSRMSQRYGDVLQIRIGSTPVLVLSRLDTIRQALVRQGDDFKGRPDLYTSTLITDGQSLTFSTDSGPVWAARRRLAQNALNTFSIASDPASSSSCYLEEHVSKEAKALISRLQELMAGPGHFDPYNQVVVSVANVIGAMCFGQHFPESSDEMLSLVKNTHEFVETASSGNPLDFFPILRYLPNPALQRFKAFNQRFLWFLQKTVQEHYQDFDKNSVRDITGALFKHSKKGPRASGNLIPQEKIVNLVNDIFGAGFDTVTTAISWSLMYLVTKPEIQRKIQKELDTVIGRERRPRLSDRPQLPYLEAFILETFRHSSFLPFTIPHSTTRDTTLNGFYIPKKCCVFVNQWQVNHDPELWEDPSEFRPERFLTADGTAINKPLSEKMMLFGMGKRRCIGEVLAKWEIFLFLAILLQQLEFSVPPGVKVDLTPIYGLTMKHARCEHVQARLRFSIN

[3] = Elimination half life in overnight fasted Beagle dog at 0.51 mg/kg, iv measured upto 24 hrs by LC-MS/MS analysis; format: ADME, organism-based, Canis lupus familiaris; details: in vivo, read-out: beta t1/2 (converted)
[4] = Metabolic stability in human liver microsomes assessed as intrinsic clearance preincubated for 5 mins followed by NADPH addition measured upto 60 mins by LC-MS/MS analysis; format: ADME, Microsome; details: time < 65 min, read-out: CLH
[5] = Cmax in overnight fasted Beagle dog at 2.37 mg/kg, po measured upto 24 hrs by LC-MS/MS analysis; format: ADME, organism-based, Canis lupus familiaris; details: in vivo
[6] = Mutagenicity in Salmonella typhimurium TA7001 in presence or absence of S9 fraction pretreated for 90 mins measured after 48 hrs in dark by AMES test; format: toxicity; details: salmonella enterica subsp. enterica serovar typhimurium, s9, 49.5 h; time 2970 min
[7] = Mutagenicity in Salmonella typhimurium TA7003 in presence or absence of S9 fraction pretreated for 90 mins measured after 48 hrs in dark by AMES test; format: toxicity; details: salmonella enterica subsp. enterica serovar typhimurium, s9, 49.5 h; time 2970 min
[8] = Mutagenicity in Salmonella typhimurium TA7004 in presence or absence of S9 fraction pretreated for 90 mins measured after 48 hrs in dark by AMES test; format: toxicity; details: salmonella enterica subsp. enterica serovar typhimurium, s9, 49.5 h; time 2970 min
Cytochrome P450 3A4 = Cytochrome P450 3A4 (Homo sapiens, UniProt P08684); test: Inhibition of human CYP3A4 preincubated for 5 mins followed by NADPH addition measured after 5 to 30 mins by LC-MS analysis; format: ADME; details: time 10-35 min
Chain of Cytochrome P450 3A4 (P08684 whole entry): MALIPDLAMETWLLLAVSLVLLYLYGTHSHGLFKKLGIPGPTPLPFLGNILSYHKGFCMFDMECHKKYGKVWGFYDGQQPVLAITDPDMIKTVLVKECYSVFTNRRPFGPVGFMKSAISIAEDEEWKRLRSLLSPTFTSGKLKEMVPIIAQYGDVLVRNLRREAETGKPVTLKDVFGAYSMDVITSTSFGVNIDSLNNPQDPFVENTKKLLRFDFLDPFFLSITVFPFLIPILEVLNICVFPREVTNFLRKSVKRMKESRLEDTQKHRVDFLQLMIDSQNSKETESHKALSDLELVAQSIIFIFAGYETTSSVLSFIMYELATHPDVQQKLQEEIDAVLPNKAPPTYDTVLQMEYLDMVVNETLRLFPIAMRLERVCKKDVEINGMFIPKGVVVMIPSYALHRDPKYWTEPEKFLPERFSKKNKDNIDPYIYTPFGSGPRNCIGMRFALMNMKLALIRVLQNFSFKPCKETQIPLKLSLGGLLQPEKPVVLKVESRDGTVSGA

[9] = Mutagenicity in Salmonella typhimurium TA7006 in presence or absence of S9 fraction pretreated for 90 mins measured after 48 hrs in dark by AMES test; format: toxicity; details: salmonella enterica subsp. enterica serovar typhimurium, s9, 49.5 h; time 2970 min
[10] = Mutagenicity in Salmonella typhimurium TA7005 in presence or absence of S9 fraction pretreated for 90 mins measured after 48 hrs in dark by AMES test; format: toxicity; details: salmonella enterica subsp. enterica serovar typhimurium, s9, 49.5 h; time 2970 min
[11] = Metabolic stability in rat hepatocytes assessed as intrinsic clearance measured per million cells incubated upto 120 mins by LC-MS/MS analysis; format: ADME, cell-based, Hepatocyte; details: read-out: CLH
[12] = Metabolic stability in human hepatocytes assessed as intrinsic clearance measured per million cells incubated upto 120 mins by LC-MS/MS analysis; format: ADME, cell-based, Hepatocyte; details: read-out: CLH
[13] = AUC in overnight fasted Beagle dog at 2.37 mg/kg, po measured upto 24 hrs by LC-MS/MS analysis; format: ADME, organism-based, Canis lupus familiaris; details: in vivo
[14] = Clearance in 8 hrs fasted cynomolgus monkey at 1 mg/kg, iv measured upto 24 hrs by LC-MS/MS analysis; format: ADME, organism-based, Macaca fascicularis; details: in vivo
[15] = Clearance in Sprague-Dawley rat at 2.5 mg/kg, iv measured after 24 hrs by LC-MS/MS analysis; format: ADME, organism-based; details: in vivo
[16] = Cmax in 8 hrs fasted cynomolgus monkey assessed as liver blood flow at 3 mg/kg, po measured upto 24 hrs by LC-MS/MS analysis; format: ADME, organism-based, Macaca fascicularis; details: in vivo
Cytochrome P450 2C19 = Cytochrome P450 2C19 (Homo sapiens, UniProt P33261); test: Inhibition of human CYP2C19 preincubated for 5 mins followed by NADPH addition measured after 5 to 30 mins by LC-MS analysis; format: ADME
Chain of Cytochrome P450 2C19 (P33261 whole entry): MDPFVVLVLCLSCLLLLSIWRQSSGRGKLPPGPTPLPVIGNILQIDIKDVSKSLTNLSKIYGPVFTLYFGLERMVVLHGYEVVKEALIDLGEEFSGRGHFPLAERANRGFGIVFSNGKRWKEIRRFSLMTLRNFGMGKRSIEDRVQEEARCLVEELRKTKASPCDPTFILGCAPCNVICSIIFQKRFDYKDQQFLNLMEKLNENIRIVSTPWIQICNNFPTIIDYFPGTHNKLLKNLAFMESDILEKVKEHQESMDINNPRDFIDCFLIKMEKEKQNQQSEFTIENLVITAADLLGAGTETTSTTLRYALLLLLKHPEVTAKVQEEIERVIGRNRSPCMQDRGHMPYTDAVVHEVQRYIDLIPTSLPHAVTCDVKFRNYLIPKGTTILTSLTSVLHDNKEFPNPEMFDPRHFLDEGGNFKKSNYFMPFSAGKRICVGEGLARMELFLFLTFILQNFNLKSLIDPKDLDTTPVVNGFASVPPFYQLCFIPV

[17] = Clearance in overnight fasted Beagle dog assessed as liver blood flow at 0.51 mg/kg, iv measured upto 24 hrs by LC-MS/MS analysis; format: ADME, organism-based, Canis lupus familiaris; details: in vivo
[18] = AUC in 8 hrs fasted cynomolgus monkey assessed as liver blood flow at 3 mg/kg, po measured upto 24 hrs by LC-MS/MS analysis; format: ADME, organism-based, Macaca fascicularis; details: in vivo
[19] = Cmax in Sprague-Dawley rat at 10 mg/kg, po measured after 24 to 48 hrs by LC-MS/MS analysis; format: ADME, organism-based; details: in vivo, time 24-48 hrs
[20] = Thermodynamic solubility of the compound in aqueous buffer at pH 7.4 measured after 24 hrs by UPLC analysis; format: physicochemical; details: read-out: Therm_solubility
[21] = Cytotoxicity against african green monkey Vero cells by ATPlite cell viability luminescence assay; format: toxicity, cell-based; details: chlorocebus sabaeus
[22] = Oral bioavailability in overnight fasted Beagle dog at 2.37 mg/kg measured upto 24 hrs by LC-MS/MS analysis; format: ADME, organism-based, Canis lupus familiaris; details: in vivo
[23] = Mutagenicity in Salmonella typhimurium TA98 in presence or absence of S9 fraction pretreated for 90 mins measured after 48 hrs in dark by AMES test; format: toxicity; details: salmonella enterica subsp. enterica serovar typhimurium, s9, 49.5 h; time 2970 min
[24] = AUC in Sprague-Dawley rat at 10 mg/kg, po measured after 24 to 48 hrs by LC-MS/MS analysis; format: ADME, organism-based; details: in vivo, time 24-48 hrs
[25] = Clearance in overnight fasted Beagle dog at 0.51 mg/kg, iv measured upto 24 hrs by LC-MS/MS analysis; format: ADME, organism-based, Canis lupus familiaris; details: in vivo
[26] = Elimination half life in Sprague-Dawley rat at 2.5 mg/kg, iv measured after 24 hrs by LC-MS/MS analysis; format: ADME, organism-based; details: in vivo, read-out: beta t1/2 (converted)
[27] = Chromatographic hydrophobicity index, log D of the compound at pH 7.4 by LC/MS analysis; format: physicochemical; details: buffer

Q: For COc1cc(N[C@H](C(=O)c2c[nH]c3ccc(OC(F)(F)F)cc23)c2ccc(Cl)cc2OC)cc(S(C)(=O)=O)c1 [MOSNODENVIR], which Vd [1] is on record?
A: 4.6 L/kg

Q: What about the efflux ratio at 2 h, 1 µM (mouse P-gp) of the same compound?
A: ~4

Q: And the Vd [2]?
A: 1.64 L/kg

Q: What about the IC50 (Cytochrome P450 1A2) of the same compound?
A: > 30 µM

Q: What about the half-life [3] of the same compound?
A: 7.3 h

Q: What about the microsomal CLint [4] of the same compound?
A: < 8 µL/min/mg

Q: What about the Cmax [5] of the same compound?
A: 362 ng/mL

Q: What about the Activity [6] of the same compound?
A: Non-Toxic

Q: And the Activity [7]?
A: Non-Toxic

Q: What about the Activity [8] of the same compound?
A: Non-Toxic

Q: What about the “inhibition (INH)” value (Cytochrome P450 3A4) of the same compound?
A: Not Active

Q: And the Activity [9]?
A: Non-Toxic

Q: And the Activity [10]?
A: Non-Toxic

Q: And the hepatocyte CLint [11]?
A: < 1.9 µL/min/1e6 cells

Q: What about the hepatocyte CLint [12] of the same compound?
A: < 1.9 µL/min/1e6 cells

Q: And the AUC at 24 h [13]?
A: 2940 ng·h/mL

Q: What about the clearance [14] of the same compound?
A: 2.45 mL/min/kg

Q: What about the clearance [15] of the same compound?
A: 4.9 mL/min/kg

Q: And the Cmax [16]?
A: 613 ng/mL

Q: What about the IC50 (Cytochrome P450 2C19) of the same compound?
A: 10.3 µM

Q: And the LBF [17]?
A: 21%

Q: What about the AUC at 24 h [18] of the same compound?
A: 8970 ng·h/mL

Q: And the Cmax [19]?
A: 629 ng/mL

Q: And the solubility thermodynamic at 24 h [20]?
A: < 1 µg/mL

Q: And the CC50 [21]?
A: 2.6 µM

Q: What about the bioavailability [22] of the same compound?
A: 51%

Q: And the Activity [23]?
A: Non-Toxic

Q: What about the AUC [24] of the same compound?
A: 15400 ng·h/mL

Q: What about the clearance [25] of the same compound?
A: 6.4 mL/min/kg

Q: What about the half-life [26] of the same compound?
A: 12.4 h

Q: What about the “Chromatographic log D at pH 7.4” value [27] of the same compound?
A: 3.94
